The values that follow come from PubChem BioAssay (NCI).

Several values for one entry are separate records, joined by “and”; a condition that tells them apart may be missing. Equal values may be shown once.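 Exposure lasted 48 hours, with cells grown in 96-well plates and compounds tested at five concentrations. GI50: concentration for 50% inhibition of growth. TGI denotes the concentration required for complete inhibition of growth.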 Bounds are passed on as bounds.

Among the test systems are NCI-H226 lung; UACC-257 melanoma; HOP-62 NSCLC; A549 NSCLC; HOP-92 NSCLC; K-562 leukemia; HL-60(TB) leukemia; LOX IMVI melanoma.
Assay in all cases: NCI anticancer screen, dose series, 48 h

For the compound `O=C1C(Cl)=C(NCCN2CCOCC2)C(=O)c2ncccc21`, the TGI in the assay with NCI-H226 lung is 5.14 µM and 3.74 µM; in the assay with UACC-257 melanoma it was 3.13 µM and 2.69 µM; in the assay on HOP-62 NSCLC it was 4.46 µM and 3.36 µM; with A549 NSCLC, 4.18 µM and 3.87 µM; with HOP-92 NSCLC, 3.84 µM and 5.47 µM; in the assay on K-562 leukemia, 3.67 µM and 4.61 µM. The TGI in the assay with HL-60(TB) leukemia is 4.44 µM; in the assay with LOX IMVI melanoma, 3.44 µM and 2.55 µM. Further, the GI50 in the assay on UACC-257 melanoma was 1.37 µM; with HOP-62 NSCLC, 1.77 µM; in the assay on K-562 leukemia it was 1.67 µM; with HL-60(TB) leukemia it was 1.43 µM; in the assay with LOX IMVI melanoma it was 0.905 µM.

On to `COc1ccc2nc3c(C(=O)NCCN(C)C)cccc3nc2c1`, for which the TGI with NCI-H226 lung is 38.6 µM; with UACC-257 melanoma, 19.9 µM; in the assay on HOP-62 NSCLC, 21.4 µM; with A549 NSCLC, above 100 µM; in the assay on HOP-92 NSCLC, 24 µM; in the assay with K-562 leukemia, 29.5 µM. The TGI in the assay on HL-60(TB) leukemia was above 100 µM; in the assay on LOX IMVI melanoma, 17.9 µM.

As for `O=C(O)/C=C(\c1nc2ccc([N+](=O)[O-])cc2[nH]1)c1cc(Cl)ccc1O`, the GI50 in the assay on NCI-H226 lung was 2.32 µM; in the assay with UACC-257 melanoma, 2.37 µM; in the assay with HOP-62 NSCLC it was 3.55 µM; in the assay on A549 NSCLC, 3.07 µM; in the assay with HOP-92 NSCLC it was 0.711 µM; in the assay on K-562 leukemia, 2.8 µM. In addition, the GI50 was 2.42 µM in the assay on HL-60(TB) leukemia and 2.41 µM in the assay with LOX IMVI melanoma. Besides, the TGI in the assay on NCI-H226 lung is 46.4 µM; with UACC-257 melanoma it was 7.15 µM; in the assay on HOP-62 NSCLC, 28.3 µM; with A549 NSCLC it was 14.1 µM; in the assay with HOP-92 NSCLC, 5.35 µM; in the assay with K-562 leukemia, 16.6 µM. For the same compound, the TGI turned out to be 30.4 µM in the assay on HL-60(TB) leukemia and 11.1 µM in the assay with LOX IMVI melanoma.
